Experimental findings from the SangsterLogP compilation are described below.

By logP is commonly meant a log measure of how a compound divides between an organic and an aqueous phase. A low value points to a more hydrophilic compound.

A short description of this data set: method code SF-AS, from Dearden, C.; O'Hara, H. (1978). Partition coefficients of some alkyl derivatives of 4-acetamidophenol. Eur J Med Chem, 13(5)415-419.
In turn, `CC(=O)Nc1cc(C(C)(C)C)c(O)c(C(C)(C)C)c1` yielded a logP of 3.18.

Compound `CC(=O)Nc1ccc(O)c(C)c1C` displayed a logP of 0.57.

Compound `CC(=O)Nc1ccc(O)c(C(C)C)c1` gave a log partition coefficient (logP) of 1.71.

Consider `CC(=O)Nc1c(C)c(C)c(O)c(C)c1C`, for which the logP was found to be 0.95.

Take `CC(=O)Nc1cc(C)c(O)cc1C`: the logP came to 0.6.

As to `CC(=O)Nc1c(C)cc(O)c(C)c1C`, the logP stood at 0.75.

In turn, `CCc1cc(NC(C)=O)ccc1O` came in with a lipophilicity (logP) of 1.31.

Regarding `CC(=O)Nc1ccc(O)cc1C`, the logP worked out at 0.17.

`CCc1cc(NC(C)=O)cc(CC)c1O` gave a log partition coefficient (logP) of 1.87.

`CC(=O)Nc1ccc(O)c(C(C)(C)C)c1` gave a logP of 2.36.

`CC(=O)Nc1c(C)cc(O)cc1C` came in with a logP of 0.31.

As to `CC(=O)Nc1ccc(O)c(C)c1`, the logP was 0.79.

Regarding `CC(=O)Nc1cc(C)c(O)c(C)c1`, the logP stood at 1.11.

As to `CC(=O)Nc1cc(C)c(O)c(C)c1C`, the logP was 0.82.
